Assay results published in patent US20260092039A1, “DUAL INHIBITORS FOR THE TREATMENT OF ALZHEIMER'S DISEASE” (UNIVERSITAT DE BARCELONA, priority 2023, published 2026).

Assays:
[1] = molecular target: T1, human recombinant glutaminyl cyclase (hQC) (Homo sapiens, UniProt Q16769); assay: In vitro determination of human QC inhibitory activity (SensoLyte Green Glutaminyl Cyclase Activity Assay Kit); type: biochemical
T1 construct: purchased Eurogentec AS-72230
Method: Basic statistical analysis was performed.

[2] = molecular target: T2, recombinant human sEH (hsEH) (Homo sapiens, UniProt P34913); assay: In vitro determination of sEH inhibitory activity (fluorescent PHOME assay)
T2 sequence (P34913 1-555): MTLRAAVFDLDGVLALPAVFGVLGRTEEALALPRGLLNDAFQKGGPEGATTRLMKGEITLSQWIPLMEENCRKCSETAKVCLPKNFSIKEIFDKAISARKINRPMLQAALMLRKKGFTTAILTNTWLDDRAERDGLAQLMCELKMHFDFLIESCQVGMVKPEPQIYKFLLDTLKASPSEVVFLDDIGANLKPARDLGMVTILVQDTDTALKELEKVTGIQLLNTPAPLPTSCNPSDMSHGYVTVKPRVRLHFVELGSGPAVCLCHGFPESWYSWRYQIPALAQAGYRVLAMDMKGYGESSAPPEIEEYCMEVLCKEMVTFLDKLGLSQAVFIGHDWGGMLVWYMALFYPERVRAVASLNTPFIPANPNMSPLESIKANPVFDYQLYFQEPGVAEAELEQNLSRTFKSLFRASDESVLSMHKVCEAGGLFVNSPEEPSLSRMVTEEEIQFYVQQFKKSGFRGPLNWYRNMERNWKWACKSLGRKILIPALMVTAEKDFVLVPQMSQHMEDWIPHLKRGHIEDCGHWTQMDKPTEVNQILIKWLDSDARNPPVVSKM
Method: Control compound (TPPU): N-[1-(1-Oxopropyl)-4-piperidinyl]-N′-[4-(trifluoromethoxy)phenyl]urea.
Five μL of DMSO were added to background and positive control wells, and then 5 μL of inhibitor solution were added in the inhibitor wells. Five μL of the solution of hsEH were added to the positive control and inhibitor wells and the mixture was stirred. A 1/21 dilution of the solution of PHOME with assay buffer was prepared according to the final volume required, and then 105 μL of each well were added. The plate was carefully shaken for 10 seconds and was incubated for 5 minutes at room temperature. […] The intensity of fluorescence was used to analyze and calculate the IC50 values. Results were obtained by regression analysis from at least three data points in a linear region of the curve. IC50 values are average of minimum three independent replicates.

[3] = Parallel artificial membrane permeation assay for blood-brain barrier (PAMPA-BBB); type: in vitro ADME, porcine; settings: for Papp: pig, PBS:EtOH (70:30), read-out: Blood-brain barrier permeability Pe; for CNS prediction: predictive penetration in the CNS from Pe
Method: A parallel artificial membrane permeation assay for blood-brain barrier (PAMPA-BBB) was used to evaluate the brain penetration of compounds of formula I, following the method described by L. Di et al., “High throughput artificial membrane permeability assay for blood-brain barrier”, European Journal of Medicinal Chemistry 2003, vol. 38. pp. 223-232. The in vitro permeability (Pe) of the test compounds through a lipid extract of porcine brain membrane was determined. Assayed compounds were tested using a mixture of PBS:EtOH (70:30). Assay validation was made by comparing the experimental and reported permeability values of a set of fourteen commercial drugs and a lineal correlation between experimental and reported permeability values of the fourteen commercial drugs was obtained (y=1.678 x−1.447; R^2=0.9313). From this equation and taking into account the limits established by Di et al. for BBB permeation, the ranges of permeability were established, as follows. Compounds of high BBB permeation (CNS+): Pe (10^−6 cm s^−1)>5.26; compounds of low BBB permeation (CNS−): Pe (10^−6 cm s^−1)<1.91; and compounds of uncertain BBB permeation (CNS+/−): 5.26>Pe (10^−6 cm s^−1)>1.91. The permeability results are averages of three different experiments in triplicate and a predictive penetration in the CNS is also given (Table 5).

[4] = test system: LPS stimulated BV2 cells; assay: Cytokine release in LPS stimulated BV2 cells; type: cell-based, murine; settings: compound 10 μM, 24 h
Method: Compounds of formula I were diluted from 250 mM DMSO stock solutions to a 10 mM stock in DMSO. Thereafter, the compounds were diluted to 10 μM and 1 μM in medium, so that the final DMSO concentration in the well was 0.1% for all conditions. The stock solutions were stored at −20° C. until further use.
Culture and treatment of BV-2 cells: The murine microglial cell line BV-2 was cultivated in Dulbecco's modified eagle medium (DMEM) supplemented with 10% fetal calf serum (FCS), 1% penicillin/streptomycin and 2 mM L-glutamine (culture medium). For the lipopolysaccharide (LPS) stimulation assay, 20,000 BV-2 cells per well (uncoated 96 well plates) were plated out. After 48 h, the medium was changed to treatment medium (DMEM, 5% FCS, 2 mM L-glutamine) and cells were maintained in treatment medium for the remaining culture period. After changing cells to treatment medium, the compounds were administered 1 h before LPS stimulation (Sigma-Aldrich; L6529; 1 mg/mL stock in ddH2O, final concentration in well: 100 ng/mL (dilutions in medium)). Cells treated with vehicle and LPS alone served as controls. All wells were handled the same way. After 24 h of stimulation, cell supernatants were collected for the cytokine measurement. The experiment was performed in n=6 technical replicates for all groups.
Cytokine measurement: The samples were diluted 1:2 and analysed for 4 cytokines (IL-1β, IL-2, IL-6, TNF-α) with a commercially available immunosorbent assay kit (U-plex, K15069L, Mesoscale Discovery) according to the instructions of the manufacturer. In brief, 25 μL of diluent 41 and 25 μL sample or respective standard were placed into wells of the pre-coated U-plex plate and incubated on an orbital shaker at room temperature for 1 h. Plates were washed 3 times with phosphate buffered saline with 0.05% Tween 20 (PBST) and thereafter 50 μL of detection antibody were added. Plates were again incubated on an orbital shaker at room temperature for 1 h. After another 3 washing steps with PBST, 150 μL of Mesoscale Discovery (MSD) GOLD Read Buffer were added and plates were read on Sector imager. Data were evaluated in comparison to calibration curves provided in the kit.
Statistics: Basic statistical analysis was performed. Group differences were evaluated by e.g. one-way ANOVA followed by a posthoc test, if appropriate.

T1 sequence (Q16769 29-361): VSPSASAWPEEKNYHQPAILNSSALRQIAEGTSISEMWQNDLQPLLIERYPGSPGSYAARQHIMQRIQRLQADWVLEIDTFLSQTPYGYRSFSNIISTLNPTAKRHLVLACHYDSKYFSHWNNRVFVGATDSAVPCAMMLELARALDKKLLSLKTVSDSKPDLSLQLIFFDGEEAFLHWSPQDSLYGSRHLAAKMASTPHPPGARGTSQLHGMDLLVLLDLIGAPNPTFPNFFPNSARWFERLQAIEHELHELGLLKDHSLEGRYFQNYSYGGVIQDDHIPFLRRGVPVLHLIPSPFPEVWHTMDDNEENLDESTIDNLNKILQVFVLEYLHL

Cc1cncn1CCCNC(=O)NC1C2CC3CC(C2)CC1(F)C3 (racemic) [Iaa, (±)-1-(1-fluoroadamantan-2-yl)-3-[3-(5-methyl-1H-imidazol-1-yl)propyl]urea]
IC50 [1]: 767 nM | IC50 [2]: 5900 nM | Papp [3]: 7.4 ×10⁻⁶ cm/s | CNS prediction [3]: CNS+ (Compounds of high BBB permeation (CNS+): Pe (10^−6 cm s^−1)>5.26)

Cc1cncn1CCCNC(=O)NC1C2CC3CC(C2)CC1(Cl)C3 (racemic) [Iz, (±)-1-(1-chloroadamantan-2-yl)-3-[3-(5-methyl-1H-imidazol-1-yl)propyl]urea]
IC50 [1]: 496 nM | IC50 [2]: 30 nM | Papp [3]: 6 ×10⁻⁶ cm/s | CNS prediction [3]: CNS+ (Compounds of high BBB permeation (CNS+): Pe (10^−6 cm s^−1)>5.26)

Cc1cncn1CCCNC(=O)NC12CC3CC(CC(C3)C1)C2 [Ia, 1-(adamantan-1-yl)-3-[3-(5-methyl-1H-imidazol-1-yl)propyl]urea]
IC50 [1]: 610 nM | IC50 [2]: 35 nM | Papp [3]: 7.1 ×10⁻⁶ cm/s | CNS prediction [3]: CNS+ (Compounds of high BBB permeation (CNS+): Pe (10^−6 cm s^−1)>5.26)

Cc1cncn1CCCNC(=O)N[C@H]1C2CC3CC1C[C@](Cl)(C3)C2 [Iab, trans-1-(5-chloroadamantan-2-yl)-3-[3-(5-methyl-1H-imidazol-1-yl)propyl]urea]
IC50 [1]: 559 nM | IC50 [2]: 39 nM | Papp [3]: 13.1 ×10⁻⁶ cm/s | CNS prediction [3]: CNS+ (Compounds of high BBB permeation (CNS+): Pe (10^−6 cm s^−1)>5.26)

Cc1cncn1CCCNC(=O)N[C@H]1C2CC3CC1C[C@](F)(C3)C2 [Iac, trans-1-(5-fluoroadamantan-2-yl)-3-[3-(5-methyl-1H-imidazol-1-yl)propyl]urea]
IC50 [1]: 236 nM | IC50 [2]: 20 nM | Papp [3]: 8.6 ×10⁻⁶ cm/s | CNS prediction [3]: CNS+ (Compounds of high BBB permeation (CNS+): Pe (10^−6 cm s^−1)>5.26)

O=C(NCCCn1ccnc1)NC12CC3CC(CC(C3)C1)C2 [Ib, 1-[3-(1H-imidazol-1-yl)propyl]-3-(adamantan-1-yl)urea]
IC50 [1]: 12700 nM | IC50 [2]: 93 nM

Cc1cncn1CCCNC(=O)NC12CC3CC(CC(C)(C3)C1)C2 [Ic, 1-[3-(5-methyl-1H-imidazol-1-yl)propyl]-3-(3-methyladamantan-1-yl)urea]
IC50 [2]: 13.3 nM | Papp [3]: 10.2 ×10⁻⁶ cm/s | CNS prediction [3]: CNS+ (Compounds of high BBB permeation (CNS+): Pe (10^−6 cm s^−1)>5.26)

Cc1cncn1CCCNC(=O)NC12CC3CC(C)(CC(C)(C3)C1)C2 [Ie, 1-(3,5-dimethyladamantan-1-yl)-3-[3-(5-methyl-1H-imidazol-1-yl)propyl]urea]
IC50 [1]: 2100 nM | IC50 [2]: 29 nM | Papp [3]: 8.8 ×10⁻⁶ cm/s | CNS prediction [3]: CNS+ (Compounds of high BBB permeation (CNS+): Pe (10^−6 cm s^−1)>5.26)

Cc1cncn1CCCNC(=O)NC12CC3CC(CC(Cl)(C3)C1)C2 [If, 1-(3-chloroadamantan-1-yl)-3-[3-(5-methyl-1H-imidazol-1-yl)propyl]urea]
IC50 [1]: 990 nM | IC50 [2]: 37 nM

Cc1cncn1CCCNC(=O)NC12CC3CC(CC(F)(C3)C1)C2 [Ig, 1-(3-fluoroadamantan-1-yl)-3-[3-(5-methyl-1H-imidazol-1-yl)propyl]urea]
IC50 [1]: 810 nM | IC50 [2]: 150 nM

Cc1cncn1CCCNC(=O)NC12CC3CC(CC(O)(C3)C1)C2 [Ih, 1-(3-hydroxyadamantan-1-yl)-3-[3-(5-methyl-1H-imidazol-1-yl)propyl]urea]
IC50 [1]: 1040 nM | IC50 [2]: 330 nM

O=C(NCCCn1ccnc1)NC1C2CC3CC(C2)CC1C3 (stereo not shown) [Ij, 1-[3-(1H-imidazol-1-yl)propyl]-3-(adamantan-2-yl)urea]
IC50 [1]: 5200 nM | IC50 [2]: 45 nM | Papp [3]: 9.4 ×10⁻⁶ cm/s | CNS prediction [3]: CNS+ (Compounds of high BBB permeation (CNS+): Pe (10^−6 cm s^−1)>5.26)

Cc1cncn1CCCNC(=O)NCC12CC3CC(CC(C3)C1)C2 [Ik, 1-[(adamantan-1-yl)methyl]-3-[3-(5-methyl-1H-imidazol-1-yl)propyl]urea]
IC50 [1]: 730 nM | IC50 [2]: 9 nM | Papp [3]: 14.1 ×10⁻⁶ cm/s | CNS prediction [3]: CNS+ (Compounds of high BBB permeation (CNS+): Pe (10^−6 cm s^−1)>5.26)

O=C(NCCCn1ccnc1)NCC12CC3CC(CC(C3)C1)C2 [Im, 1-[3-(1H-imidazol-1-yl)propyl]-3-[(adamantan-1-yl)methyl]urea]
IC50 [1]: 3500 nM | IC50 [2]: 300 nM | Papp [3]: 11.8 ×10⁻⁶ cm/s | CNS prediction [3]: CNS+ (Compounds of high BBB permeation (CNS+): Pe (10^−6 cm s^−1)>5.26)

Cc1cncn1CCCNC(=O)NCCC12CC3CC(CC(C3)C1)C2 [Io, 1-[2-(adamantan-1-yl)ethyl]-3-[3-(5-methyl-1H-imidazol-1-yl)propyl]urea]
IC50 [1]: 1650 nM | IC50 [2]: 1.3 nM | Papp [3]: 18.7 ×10⁻⁶ cm/s | CNS prediction [3]: CNS+ (Compounds of high BBB permeation (CNS+): Pe (10^−6 cm s^−1)>5.26)

Cc1cncn1CCCNC(=O)NC12CC3CC(CC(C3)O1)C2 [Iq, 1-(2-oxaadamantan-1-yl)-3-[3-(5-methyl-1H-imidazol-1-yl)propyl]urea]
IC50 [2]: 5100 nM | Papp [3]: 26.4 ×10⁻⁶ cm/s | CNS prediction [3]: CNS+ (Compounds of high BBB permeation (CNS+): Pe (10^−6 cm s^−1)>5.26)

Cc1cncn1CCCNC(=O)NCC12CC3CC(CC1C3)C2 [Iu, 1-[(noradamantan-3-yl)methyl]-3-[3-(5-methyl-1H-imidazol-1-yl)propyl]urea]
IC50 [2]: 194 nM | Papp [3]: 5.4 ×10⁻⁶ cm/s | CNS prediction [3]: CNS+ (Compounds of high BBB permeation (CNS+): Pe (10^−6 cm s^−1)>5.26)

Cc1cncn1CCCNC(=O)NCC12CC3(C)C4(C)CC1CC4(C)C3(C)C2 [Iw, 1-[3-(5-methyl-1H-imidazol-1-yl)propyl]-3-[(3,4,8,9-tetramethyltetracyclo[4.4.0.0^3,9.0^4,8]decan-1-yl)methyl]urea]
IC50 [1]: 6800 nM | IC50 [2]: 72 nM

Cc1cncn1CCCNC(=O)NC(C)C12CC3CC(CC(C3)C1)C2 (stereo not shown) [Ix, 1-[1-(adamantan-1-yl)ethyl]-3-[3-(5-methyl-1H-imidazol-1-yl)propyl]urea]
IC50 [2]: 59 nM | Papp [3]: 6.5 ×10⁻⁶ cm/s | CNS prediction [3]: CNS+ (Compounds of high BBB permeation (CNS+): Pe (10^−6 cm s^−1)>5.26)

CCC(=O)N1CCC(NC(=O)Nc2ccc(OC(F)(F)F)cc2)CC1 [TPPU, N-[1-(1-Oxopropyl)-4-piperidinyl]-N′-[4-(trifluoromethoxy)phenyl]urea, reference compound]
IL-1β level [4]: 125 % of vehicle control | IL-2 level [4]: 113 % of vehicle control | IL-6 level [4]: 117 % of vehicle control | TNF-α level [4]: 96 % of vehicle control

C[C@@H]1C[C@H]2[C@@H]3CCC4=CC(=O)C=C[C@]4(C)[C@@]3(F)[C@@H](O)C[C@]2(C)[C@@]1(O)C(=O)CO [dexamethasone, reference compound]
IL-1β level [4]: 42 % of vehicle control | IL-2 level [4]: 50 % of vehicle control | IL-6 level [4]: 55 % of vehicle control | TNF-α level [4]: 49 % of vehicle control
